Laboratory results published in US6924302B2, “Substituted triazole diamine derivatives as kinase inhibitors” (Ortho McNeil Pharmaceutical, Inc., priority 2000, dated 2005).

Columns and labels:
Assay type in all cases: biochemical
[1] = target: T1, CDK1:Cyclin-B (Homo sapiens, UniProt P06493); experiment: CDK1 Screening Assay; details: Table 1; read-out: CDK1 IC50
T1 construct: purchased New England Biolabs 6020; host or cells: insect cells
Experimental: (§1) 70 μL of the kinase reaction mixture was dispensed into the well of a streptavidin coated FlashPlate™ (Cat. # SMP103, NEN, Boston, Mass.). Then 1 μL of test compound stock in 100% DMSO was added to the wells resulting in a final concentration of 1% DMSO in the reaction with a 100 μl final reaction volume. Next, CDK1:Cyclin-B protein was diluted in 50 mM Tris-HCl pH=8.0, 0.1% BSA at a concentration of 1 ng per μL and 30 μl (30 ng enzyme per test well) was added to each well to initiate the reaction. The reaction was incubated for one hour at 30° C. At the end of the 1-hour incubation, the reaction was terminated by aspirating the reaction mixture from the plate and washing the wells twice with PBS containing 100 mM EDTA. The histone-H1 biotinylated peptide substrate became immobilized on the Flashplate™ and the incorporation of ^33P-γ-ATP was measured by reading the plate on a scintillation counter. Inhibition of the enzymatic activity of CDK1 was measured by observing a reduced amount of ^33P-γ-ATP incorporated into the immobilized peptide.
Assays to test compound inhibition of other kinases were preformed using methods that measure the amount of phosphorylation of a biotinylated peptide substrate. Biotinylated peptide substrates were selected from the literature as appropriate for the enzyme being evaluated. […] Assay conditions vary slightly for each protein kinase, for example, insulin receptor kinase requires 10 mM MnCl2 for activity and Calmodulin-dependent protein kinase requires calmodulin and 10 mM CaCl2. These assay conditions are known in the art. The reaction mixture was dispensed into the wells of a streptavidin coated Flashplate and 1 μl drug stock in 100% DMSO was added to a 100 μl reaction volume resulting in a final concentration of 1% DMSO on the reaction. Enzyme was diluted in 50 mM Tris-HCl pH=8.0, 0.1% BSA and add to each well. The reaction was incubated for one hour at 30° C. in the presence of compound. After one hour the reaction mix was aspirated from the plate and the plate was washed with PBS containing 100 mM EDTA. The plate was read on a scintillation counter to determine ^33P-γ-ATP incorporated into the immobilized peptide. Test compounds were assayed in duplicate at 8 concentrations [100 uM, 10 uM, 1 uM, 100 nM, 10 nM, 1 nM, 100 pM, 10 pM]. A maximum and minimum signal for the assay was determined on each plate. The IC50 was calculated from the dose response curve of the percent inhibition of the maximum signal in the assay according to the formula [max signal—background/test compound signal—background (100)=% inhibition] by graphing the percent inhibition against the log concentration of test compound. Known inhibitor compounds appropriate for the kinase being assayed were also included on each plate. […]

[2] = target: T2, VEGF-R (vascular endothelial growth factor receptor-2) (Rattus norvegicus, UniProt O08775); experiment: VEGF-R Screening Assay; details: Table 1; read-out: VEGF-R IC50
T2 construct: polyhistidine (6xHIS) (N)
Experimental: as §1, with “a 100 μL final reaction” for “a 100 μl final reaction”, “volume. Next, soluble rat tyrosine kinase containing an N-terminal 6×HIS tag was diluted” for “volume. Next, CDK1:Cyclin-B protein was diluted”, “concentration of 5 ng per” for “concentration of 1 ng per”, “and 30 μL (150 ng enzyme” for “and 30 μl (30 ng enzyme”, “EDTA. The PLC1 biotinylated peptide” for “EDTA. The histone-H1 biotinylated peptide”, “activity of the VEGF-R was measured” for “activity of CDK1 was measured”
(§2) Assays to test compound inhibition of other kinases were preformed using methods that measure the amount of phosphorylation of a biotinylated peptide substrate. Biotinylated peptide substrates were selected from the literature as appropriate for the enzyme being evaluated. […] Assay conditions vary slightly for each protein kinase, for example, insulin receptor kinase requires 10 mM MnCl2 for activity and Calmodulin-dependent protein kinase requires calmodulin and 10 mM CaCl2. These assay conditions are known in the art. The reaction mixture was dispensed into the wells of a streptavidin coated Flashplate and 1 μl drug stock in 100% DMSO was added to a 100 μl reaction volume resulting in a final concentration of 1% DMSO on the reaction. Enzyme was diluted in 50 mM Tris-HCl pH=8.0, 0.1% BSA and add to each well. The reaction was incubated for one hour at 30° C. in the presence of compound. After one hour the reaction mix was aspirated from the plate and the plate was washed with PBS containing 100 mM EDTA. The plate was read on a scintillation counter to determine ^33P-γ-ATP incorporated into the immobilized peptide. Test compounds were assayed in duplicate at 8 concentrations [100 uM, 10 uM, 1 uM, 100 nM, 10 nM, 1 nM, 100 pM, 10 pM]. A maximum and minimum signal for the assay was determined on each plate. The IC50 was calculated from the dose response curve of the percent inhibition of the maximum signal in the assay according to the formula [max signal—background/test compound signal—background (100)=% inhibition] by graphing the percent inhibition against the log concentration of test compound. Known inhibitor compounds appropriate for the kinase being assayed were also included on each plate.
(§3) CDK2 in complex with cyclin A is commercially available (Upstate Biotech, Lake Placid, N.Y.). The CDK4 complex was composed of a mouse CDK4 protein and a mouse Cyclin D1 protein (The mouse CDK4 protein was genetically fused to an N-terminal Flag-epitope tag and the mouse Cyclin D1 protein was fused with an N-terminal AU-1 epitope tag. The genes encoding these proteins were transferred to commercially available baculoviral vectors. The recombinant CDK4/D1 complex was then made by co-infecting commercially available insect cells with viruses carrying these two constructs). […] ERK-1 protein (Discontinued from Calbiochem). EGFR (epidermal growth factor receptor) is purified from human A431 cell membranes (Sigma, St. Louis, Mo., Cat.# E3641).

[3] = target: T3, HER2 (human epidermal growth factor receptor-2) (Homo sapiens, UniProt P04626); experiment: Kinase Selectivity Assay HER2; details: Table 1; read-out: HER2 IC50
T3 construct: begins at amino acid 676 followed by the remainder of the HER2 cytoplasmic domain; polyhistidine (N)
Experimental: as §2, §3

T1 sequence (P06493 whole entry): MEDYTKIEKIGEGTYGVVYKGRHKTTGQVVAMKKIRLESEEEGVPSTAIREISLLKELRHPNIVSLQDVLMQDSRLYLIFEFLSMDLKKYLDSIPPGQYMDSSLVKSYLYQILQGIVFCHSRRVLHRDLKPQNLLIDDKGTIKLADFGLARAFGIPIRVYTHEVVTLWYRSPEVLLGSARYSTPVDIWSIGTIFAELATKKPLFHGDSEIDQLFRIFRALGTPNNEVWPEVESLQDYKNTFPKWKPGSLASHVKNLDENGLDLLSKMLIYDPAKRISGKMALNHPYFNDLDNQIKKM
T1 sequence (P14635 whole entry partner): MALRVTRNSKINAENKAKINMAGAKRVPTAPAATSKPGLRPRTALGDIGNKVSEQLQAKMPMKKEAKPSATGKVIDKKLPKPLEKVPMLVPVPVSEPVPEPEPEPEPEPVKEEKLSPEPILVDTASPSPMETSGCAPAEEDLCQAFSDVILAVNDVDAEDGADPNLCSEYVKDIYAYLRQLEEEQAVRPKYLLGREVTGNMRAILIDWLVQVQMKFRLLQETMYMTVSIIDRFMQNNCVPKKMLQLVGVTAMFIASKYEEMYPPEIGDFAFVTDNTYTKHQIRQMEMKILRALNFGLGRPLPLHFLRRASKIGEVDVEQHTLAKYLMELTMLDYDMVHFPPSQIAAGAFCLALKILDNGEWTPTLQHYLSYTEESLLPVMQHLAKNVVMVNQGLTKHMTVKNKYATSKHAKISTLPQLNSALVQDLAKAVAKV
T3 sequence (P04626 676-1255 limits assumed): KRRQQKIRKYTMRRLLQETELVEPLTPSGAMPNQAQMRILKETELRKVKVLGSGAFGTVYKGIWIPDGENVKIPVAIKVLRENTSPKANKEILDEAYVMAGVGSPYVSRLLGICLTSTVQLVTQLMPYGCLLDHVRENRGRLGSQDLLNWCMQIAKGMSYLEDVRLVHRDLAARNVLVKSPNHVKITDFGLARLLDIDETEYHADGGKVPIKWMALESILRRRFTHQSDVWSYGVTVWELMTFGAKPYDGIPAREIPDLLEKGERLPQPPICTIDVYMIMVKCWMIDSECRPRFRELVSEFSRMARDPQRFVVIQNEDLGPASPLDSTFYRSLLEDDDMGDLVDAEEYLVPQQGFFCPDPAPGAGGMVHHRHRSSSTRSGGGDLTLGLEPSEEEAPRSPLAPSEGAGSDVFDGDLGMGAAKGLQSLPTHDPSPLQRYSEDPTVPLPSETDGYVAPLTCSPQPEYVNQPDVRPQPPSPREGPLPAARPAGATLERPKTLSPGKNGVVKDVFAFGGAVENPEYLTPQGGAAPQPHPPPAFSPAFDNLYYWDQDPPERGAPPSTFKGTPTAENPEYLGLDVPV
T2 sequence (O08775 786-1343): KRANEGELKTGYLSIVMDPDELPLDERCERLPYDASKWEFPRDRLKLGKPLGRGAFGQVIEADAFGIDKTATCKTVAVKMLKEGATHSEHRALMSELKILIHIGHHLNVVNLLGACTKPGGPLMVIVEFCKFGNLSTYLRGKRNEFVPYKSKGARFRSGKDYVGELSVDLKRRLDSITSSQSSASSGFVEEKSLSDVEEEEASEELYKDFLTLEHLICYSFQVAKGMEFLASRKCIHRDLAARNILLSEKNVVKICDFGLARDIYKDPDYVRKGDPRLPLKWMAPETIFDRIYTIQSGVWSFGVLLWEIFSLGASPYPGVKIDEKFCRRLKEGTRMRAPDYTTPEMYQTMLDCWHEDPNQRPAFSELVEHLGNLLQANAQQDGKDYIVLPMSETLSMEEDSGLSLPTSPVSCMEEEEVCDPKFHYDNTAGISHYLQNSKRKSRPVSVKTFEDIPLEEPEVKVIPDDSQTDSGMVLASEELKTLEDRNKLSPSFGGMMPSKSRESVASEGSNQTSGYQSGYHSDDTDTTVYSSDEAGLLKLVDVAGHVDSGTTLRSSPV

IC50 [1] [nM]	IC50 [2] [nM]	IC50 [3] [nM]	SMILES
490	20000	4170	Cc1cccc(C)c1C(=O)n1nc(Nc2ccc(S(N)(=O)=O)cc2)nc1N [Cpd 56, 4-[[5-amino-1-(2,6-dimethylbenzoyl)-1H-1,2,4-triazol-3-yl]amino]-benzenesulfonamide]
> 1000	> 1000	> 1000	Nc1nc(Nc2ccc(S(N)(=O)=O)cc2)nn1C(=O)c1ccc(-c2ccccn2)s1 [Cpd 49, 4-[[5-amino-1-[[5-(2-pyridinyl)-2-thienyl]carbonyl]-1H-1,2,4-triazol-3-yl]amino]-benzenesulfonamide]
~100	~100	~10	CCc1ccc(C(=O)n2nc(Nc3ccc(-n4cncn4)cc3)nc2N)s1 [Cpd 97, 1-[(5-ethyl-2-thienyl)carbonyl]-N^3-[4-(1H-1,2,4-triazol-1-yl)phenyl]-1H-1,2,4-triazole-3,5-diamine]
340	1100	1290	Nc1nc(Nc2ccc(-n3cnnc3)cc2)nn1C(=O)c1c(F)cccc1F [Cpd 100, 1-(2,6-difluorobenzoyl)-N^3-[4-(4H-1,2,4-triazol-4-yl)phenyl]-1H-1,2,4-triazole-3,5-diamine]
1430	380	1490	Cc1ccc(F)c(C(=O)n2nc(Nc3ccc(N4CCN(C)CC4)cc3)nc2N)c1F [Cpd 72, 1-(2,6-difluoro-3-methylbenzoyl)-N^3-[4-(4-methyl-1-piperazinyl)phenyl]-1H-1,2,4-triazole-3,5-diamine]
460	21	62	Cc1cc(C)c(C(=O)n2nc(Nc3ccc(N4CCN(C)CC4)cc3)nc2N)s1 [Cpd 74, 1-[(3,5-dimethyl-2-thienyl)carbonyl]-N^3-[4-(4-methyl-1-piperazinyl)phenyl]-1H-1,2,4-triazole-3,5-diamine]
710	598	~10000	CN(C)S(=O)(=O)c1ccc(Nc2nc(N)n(C(=O)c3c(F)cccc3F)n2)cc1 [Cpd 89, 4-[[5-amino-1-(2,6-difluorobenzoyl)-1H-1,2,4-triazol-3-yl]amino]-N,N-dimethyl-benzenesulfonamide]
120	190	200	Nc1nc(Nc2ccc(S(N)(=O)=O)cc2)nn1C(=O)c1sccc1-n1cccc1 [Cpd 50, 4-[[5-amino-1-[[3-(1H-pyrrol-1-yl)-2-thienyl]carbonyl]-1H-1,2,4-triazol-3-yl]amino]-benzenesulfonamide]
~1000	~100	~100	CCc1ccc(C(=O)n2nc(Nc3ccc(-n4ccnc4)cc3)nc2N)s1 [Cpd 90, 1-[(5-ethyl-2-thienyl)carbonyl]-N^3-[4-(1H-imidazol-1-yl)phenyl]-1H-1,2,4-triazole-3,5-diamine]
520	33	60	CCc1ccc(C(=O)n2nc(Nc3ccc(N4CCN(C)CC4)cc3)nc2N)s1 [Cpd 75, 1-[(5-ethyl-2-thienyl)carbonyl]-N^3-[4-(4-methyl-1-piperazinyl)phenyl]-1H-1,2,4-triazole-3,5-diamine]
2200	29	176	Cc1ccsc1C(=O)n1nc(Nc2ccc(N3CCN(C)CC3)cc2)nc1N [Cpd 73, N^3-[4-(4-methyl-1-piperazinyl)phenyl]-1-[(3-methyl-2-thienyl)carbonyl]-1H-1,2,4-triazole-3,5-diamine]

SMILES	IC50 [1] [nM]	IC50 [2] [nM]	IC50 [3] [nM]
CC(C)(C)OC(=O)/C=C/c1ccc(C(=O)n2nc(Nc3ccc(S(N)(=O)=O)cc3)nc2N)s1 [Cpd 52, 3-[5-[[5-amino-3-[[4-(aminosulfonyl)phenyl]amino]-1H-1,2,4-triazol-1-yl]carbonyl]-2-thienyl]-(2E)-2-propenoic acid-1,1-dimethylethyl ester]	35	110	1470
